Measurements: article PMC12254070, “Antimicrobial Peptides Design Using Deep Learning and Rational Modifications: Activity in Bacteria, Candida albicans, and Cancer Cells” (Current Microbiology, 2025)
Where two headings read alike, the source gives them in different places. Ends that are not written are not given here.

Assays:
P. aeruginosa ATCC 27853 = assay type: cell-based, Pseudomonas aeruginosa
Procedure: (§1) The antimicrobial activity of the peptides was evaluated with S. aureus ATCC 25923, P. aeruginosa ATCC 27853, Escherichia coli ATCC 25922, Klebsiella quasipneumoniae ATCC 700603, and the yeast C. albicans ATCC 10231. The minimum inhibitory concentration (MIC) was determined following the protocol described by Wiegand et al.. Briefly, bacteria were grown overnight in Mueller–Hinton (MH) medium at 37 °C and 90 rpm, while C. albicans was grown at 30 °C in MH supplemented with 30% YPD (yeast extract, peptone, dextrose). The concentration of bacteria and C. albicans was adjusted to 10^6 CFU/mL. […] Microorganism growth was measured hourly at 600 nm for 24 h, with a 10-s shaking cycle, on a Multiskan Go microplate reader (Thermo Scientific). The experiments with bacteria were incubated at 37 °C, whereas those with C. albicans were incubated at 30 °C. Each peptide was evaluated by duplicate on 2 different days. The MIC was estimated as the minimum peptide concentration at which the microorganism had no growth. […] In all assays, untreated culture medium without peptides was included as a negative control to account for basal microbial growth. All assays were performed in two independent experiments, each conducted with two technical replicates (n = 4 per condition).

human red blood cells [1] = details: red cells of human, 3 h
[2] = test system: Escherichia coli ATCC 25922; assay type: cell-based
Procedure: as §1

[3] = test system: Klebsiella quasipneumoniae ATCC 700603; assay type: cell-based
Procedure: as §1

C. albicans ATCC 10231 = assay type: cell-based, Candida albicans
Procedure: as §1

S. aureus ATCC 25923 = assay type: cell-based, Staphylococcus aureus
Procedure: as §1

[4] = test system: human breast adenocarcinoma (MCF-7) cells; assay type: cell-based
Procedure: (§2) The methodology proposed by Zhang et al. […] After 24 h of incubation, the wells were washed twice with PBS, and 10 μL of MTT solution was added to each well at a final concentration of 0.5 mg/mL, and the cell cultures were incubated for 4 h at 37 °C. The solution was removed from each well, and the formazan crystals were dissolved with 100 μL of Sodium Dodecyl Sulfate (0.01 M). After 16 h, absorbance was measured with a MultiSkan Go microplate reader at 570 nm. The untreated wells were used as a negative control, while wells treated with DMSO were used as a positive control for cytotoxicity. The percent viability was determined using the following equation. %viability=[…]-×100% where ABSM is the average absorbance with the treatment and ABSC is the absorbance obtained in the controls (positive and negative).

[5] = test system: human lung adenocarcinoma (A549) cells; assay type: cell-based
Procedure: as §2

human red blood cells [6] = experiment: Hemolysis assay; details: human erythrocytes 1:10 in 0.9% PBS, 50 µM peptide, 37 °C, 3 h, OD 545 nm, 0.1% Triton X-100 = positive control, three replicate wells
[7] = Mueller–Hinton, 10^6 CFU/mL, 37 °C, 24 h, OD 600 nm, minimum concentration with no growth, n = 4
[8] = minimum bactericidal concentration, value in brackets

| Sequence | IC50 (P. aeruginosa ATCC 27853; ATCC 27853, 24 h) | MBC P.a (P. aeruginosa ATCC 27853; ATCC 27853, 24 h) | MIC P.a (P. aeruginosa ATCC 27853; ATCC 27853, 24 h) | % Hemolysis at 50 µM (human red blood cells [1]) | IC50 ([2]; ATCC 25922, 24 h) | MBC E.c ([2]; ATCC 25922, 24 h) | MIC E.c ([2]; ATCC 25922, 24 h) | IC50 ([3]; ATCC 700603, 24 h) | MBC K.q ([3]; ATCC 700603, 24 h) | MIC K.q ([3]; ATCC 700603, 24 h) | IC50 (C. albicans ATCC 10231; ATCC 10231, 24 h) | MFC C.a (C. albicans ATCC 10231; ATCC 10231, 24 h) | IC50 (S. aureus ATCC 25923; ATCC 25923, 24 h) | MBC S.a (S. aureus ATCC 25923; ATCC 25923, 24 h) | MIC S.a (S. aureus ATCC 25923; ATCC 25923, 24 h) | IC50 ([4]; 24 h) | IC50 ([5]; 24 h) | MHC (minimum hemolytic concentration) (human red blood cells [1]) | also measured |
| --- | --- | --- | --- | --- | --- | --- | --- | --- | --- | --- | --- | --- | --- | --- | --- | --- | --- | --- | --- |
| AGLARKWLKLPIGVLAR [OrP1] | 14.8 µM | 99.3 µM | 49.7 µM | 1.2% | 5.8 µM | 12.4 µM | 12.4 µM | 22.4 µM | > 99.3 µM | 49.7 µM | 14.8 µM | 49.7 µM | 24.2 µM | > 99.3 (> 99.3) µM | > 99.3 (> 99.3) µM | 9.1 µM | 21.7 µM |  |  |
| AGLKKLAKKLGKVVL [OrP3] | 9.6 µM | 13.9 µM | 13.9 µM | 0.0% | 1.6 µM | 3.5 µM | 3.5 µM | 6 µM | 27.8 µM | 13.9 µM | 9.6 µM | 27.8 µM | 10.1 µM | 27.8 µM | 27.8 µM | 23.2 µM | 33.1 µM |  |  |
| AIVKKIGKIWKNFIK [VeP2M] | 5.9 µM | 15.6 µM | 7.8 µM | 7.1% | 1.6 µM | 3.9 µM | 3.9 µM | 9.2 µM | 62.6 µM | 31.3 µM | 5.9 µM | 31.3 µM | 7.9 µM | 31.3 µM | 15.6 µM | 21.9 µM | 34.9 µM | 68.64 µM |  |
| AKLLGKLLRKKIGVL [OrP4] | 23.3 µM | 31.3 µM | 15.7 µM |  | 14.8 µM | 62.6 µM | 31.3 µM | 29 µM | > 125.2 (> 125.2) µM |  | 23.3 µM | 125.3 µM |  | > 125.2 (> 125.2) µM | > 125.2 (> 125.2) µM | > 100 µM |  | 28.98 µM |  |
| FKKLLKFLKWLF [VeP1] | 31.7 µM | 56.6 µM | 56.6 µM |  | 5.8 µM | 14.1 µM |  | 5.9 µM | 28.3 µM | 28.3 µM | 31.7 µM | > 113.1 µM | 2.1 µM | 3.5 µM |  |  |  | 4.25 µM |  |
| FKLFCVAKRLPKKVL [OrP9] | 44.1 µM | 29.8 µM | 14.9 µM |  | 4.9 µM | 7.5 µM | 7.5 µM | 93 µM | > 119.2 (> 119.2) µM | > 119.2 (> 119.2) µM | 44.1 µM | > 119.2 (> 119.2) µM |  | > 119.2 (> 119.2) µM | > 119.2 (> 119.2) µM | > 100 µM |  |  |  |
| IGKVWKVAKKLIKI [OrP9M] | 4.9 µM | 1.9 µM |  |  | 3.2 µM | 7.8 µM | 7.8 µM | 3.8 µM | 15.6 µM | 15.6 µM | 4.9 µM |  | 4.5 µM | 31.1 µM | 15.6 µM | < 6.25 µM | 25.1 µM |  |  |
| IKKWGKVLKKLI [VeP1M] |  |  |  |  |  |  |  |  |  |  |  |  |  |  |  |  |  |  | MIC P.a (P. aeruginosa ATCC 27853; [7]): 3.8 µM; IC50 (P. aeruginosa ATCC 27853; half inhibitory concentration against the microorganism, Table S4, dose-response curves, read-out: IC50 P.a.): 10 µM; MBC P.a (P. aeruginosa ATCC 27853; [8]): 3.8 µM; MIC E.c [2, 7]: 7.6 µM; IC50 ([2]; half inhibitory concentration against the microorganism, Table S4, dose-response curves, read-out: IC50 E.c.): 3.7 µM; MBC E.c [2, 8]: 7.6 µM; MIC K.q [3, 7]: 30.4 µM; IC50 ([3]; half inhibitory concentration against the microorganism, Table S4, dose-response curves, read-out: IC50 K.q.): 6.8 µM; MBC K.q [3, 8]: 30.4 µM; MIC C.a (C. albicans ATCC 10231; MH + 30% YPD, 10^6 CFU/mL, 30 °C, 24 h, OD 600 nm, minimum concentration with no growth, n = 4): 15.2 µM; IC50 (C. albicans ATCC 10231; half inhibitory concentration against the microorganism, Table S4, dose-response curves, read-out: IC50 C.a.): 10 µM; MFC C.a (C. albicans ATCC 10231; minimum fungicide concentration, value in brackets): 30.3 µM; MIC S.a (S. aureus ATCC 25923; [7]): 15.2 µM; IC50 (S. aureus ATCC 25923; half inhibitory concentration against the microorganism, Table S4, dose-response curves, read-out: IC50 S.a.): 8.3 µM; MBC S.a (S. aureus ATCC 25923; [8]): 15.2 µM; % Hemolysis at 50 µM (human red blood cells [6]): 0.0%; IC50 ([4]; MTT, 24 h incubation with peptide, triplicate, non-linear regression, read-out: IC50 MCF-7): 13.6 µM; IC50 ([5]; MTT, 24 h incubation with peptide, triplicate, non-linear regression, read-out: IC50 A549): 35 µM |
| IKPVVKGIKGVKNFFK [VeP2] | 21.9 µM | 102.9 µM | 51.5 µM | 3.0% | 22.8 µM | 103 µM | 103 µM | 30.7 µM | > 103 µM | 103 µM | 23.7 µM | > 102.9 µM | 53.2 µM | > 102.9 µM | 51.5 µM | 34.2 µM | 69.6 µM |  |  |
| LAKRWLKLLGKLAK [OrP1M] | 10.1 µM | 3.9 µM | 3.9 µM |  | 1.5 µM | 1.9 µM |  | 4.5 µM | 15.8 µM | 15.8 µM | 10.1 µM | 31.6 µM | 2.3 µM | 3.9 µM | 3.9 µM | < 6.25 µM | 21.1 µM |  |  |
| LKRLAKLLKKWIKA [OrP4M] | 9.4 µM | 3.5 µM | 3.5 µM |  | 2.2 µM | 3.5 µM | 3.5 µM | 3.3 µM | 14.1 µM | 7.1 µM | 9.4 µM | 28.2 µM | 3.4 µM | 14.1 µM | 7.1 µM | < 6.25 µM |  | 59.91 µM |  |
